# Results reported in US20100226888A1, “Ethanol Enhances the Complete Replication of Hepatitis C Virus: the Role of Acetaldehyde” (priority 2009, published 2010).
# Read-outs that look alike come from different tables or passages of the source.
# Assays:
# [1] = system: Con1 subgenomic HCV replicon (genotype 1b); experiment: Con1 subgenomic replicon HCV RNA in SgPC2 cells (Northern blot); format: cell-based, hepatitis C virus; settings: 24 h; for HCV RNA level / HCV replication in SgPC2 cells: 5 μM acetaldehyde, 5 μM acetate, 0.2% isopropyl alcohol, 2 mM acetone, 25 mM tert-butanol, 5 mM lactate; for potentiation of HCV RNA replication by ethanol, acetaldehyde, isopropyl alcohol, acetone, and acetate: 30 min pretreatment with 5 μM lovastatin, 5 μM fluvastatin, 5 μg/ml TOFA or 5 μg/ml cerulenin
# Excerpt: (§1) The genotype 2a HCV constructs, pJFH1 (produces infectious virus particles), replicative-null pJFH1-GND, and subgenomic pSgJFH1-Luc (contains a luciferase reporter gene), are described elsewhere (23, 24). Subgenomic HCV replicons are bicistronic constructs that express only the nonstructural proteins of HCV under the control of encephalocarditis virus IRES; neomycin resistance or firefly luciferase gene is under the control of the HCV IRES (15, 22, 24). These replicons support HCV RNA replication but no virus is formed in cell culture. Huh7 cell clones (SgPC2 cells, Clone B) supporting continuous replication of subgenomic HCV replicon of genotype 1b (Con1 sequence) were also used (17, 22).
# (§2) The in vitro transcription, and transfection of HCV RNA, and Huh7 human hepatoma cell culture were performed as previously described (17). For experiments involving stable clones, cells were cultured in medium supplemented with 0.4-0.5 mg/mL G418, and G418 was removed from cell culture medium one day prior to cell treatments, which were performed as described in Results. For the in vitro infectivity assays, 2 ml of the extracellular medium from JFH1 RNA-transfected cells was used to inoculate naive Huh7 or Huh7.5 cells with 3 ml of fresh medium, as described (23, 25). Treatments were initiated 24 hours after infection and the cells were harvested after another 24 or 48 hrs.
# (§3) Intracellular RNA extraction and northern blots were carried out, as described (16, 17). DNA probes were prepared from nucleotides (“nt.”) 4128-8273 or 358-2816 of JFH1, generated with ScaI and ApaL I, respectively, or nt. 3669 to 6016 of the Con1 subgenomic replicons. Images were quantified by densitometry, using Optiquant Cyclone 4.00 (Perkin Elmer), and data were normalized by glyceraldehyde 3-phosphate dehydrogenase (GAPDH) mRNA content.
# NADH/NAD+ ratio = experiment: NADH/NAD+ enzymatic NADH recycling assay; format: cell-based, human; settings: for NADH/NAD+ ratio: SgPC2 cells, 0.2% ethanol, 5 μM acetaldehyde, 5 μM acetate, 0.2% isopropyl alcohol, 2 mM acetone, 25 mM tert-butanol; for NADH/NAD+ ratio in ethanol-treated cells: with cyanamide, 4 MP, and DADS, data not shown
# [2] = system: intracellular cholesterol; experiment: Total intracellular cholesterol content in SgPC2 cells; format: cell-based, human; settings: 24 h
# Procedure: FIG. 7. […] SgPC2 cells were treated for 24 h with (A and B) 0.2% ethanol, 5 μM acetaldehyde, 0.2% isopropyl alcohol, 2 mM acetone, 5 μM acetate±30 min pretreatment with (A) 5 μM lovastatin, 5 μM fluvastatin, (B) 5 μg/ml TOFA, 5 μg/ml cerulenin, or with (C) 2 mM β-mercaptopropionic acid (β-MPA). Then, HCV RNA levels were monitored by Northern blot and quantified by densitometry (n=3). D, SgPC2 cells, treated for 24 h with ethanol, acetaldehyde, acetone, and acetate±lovastatin, were monitored for cholesterol levels (n=3). Lovastatin was activated, as described, before use (29). *, indicates statistically significant difference for indicated sample sizes (p<0.05)
# HCV = settings: references 53, 54; cited from earlier work
# JFH1 HCV (genotype 2a) = format: cell-based, hepatitis C virus
# [3] = system: Huh7 human hepatoma cells
# Procedure: NADH and NAD+ levels were determined by enzymatic NADH recycling assay, using the NAD+/NADH Quantification Kit from Biovision, per manufacturers recommendations with an optional filtration step that used Microcon YM-10 (Millipore). Total ATP content was measured using Somatic Cell ATP Assay Kit from Sigma-Aldrich. The data were normalized by total protein content, determined with BCA assay kit from Pierce.
# To examine whether ethanol increased the complete replication of HCV, positive-sense genomic JFH1 RNA was produced by in vitro transcription, using T7 RNA polymerase, and transfected into Huh7 human hepatoma cells. Then, the transfected cells were exposed to 0-1.0% (v/v; 0-172 mM) ethanol once daily with a change of medium each day for 48 hrs. Then, the cells and the cell culture medium were harvested and analyzed for intracellular and RNase A-resistant extracellular HCV RNA's by a combination of Northern blots and qRT-PCR.
# JFH1 virus = experiment: HCV RNA in naive Huh7 or Huh7.5 cells inoculated with JFH1 virus-containing medium; format: cell-based, hepatitis C virus
# Procedure: as §2
# The total intracellular RNA was obtained from cells using Trizol (Invitrogen). To obtain extracellular HCV RNA, cell culture medium samples were first treated with RNase A (100 μg/ml) for 30 min at room temperature, then RNA was extracted using Trizol LS and glycogen as a carrier. HCV RNA was quantified by qRT-PCR as described (17, 23). For JFH1, the primer sequences were 5′ […] 3′ (nt 146 to 164; forward, SEQ ID NO.: 1), and 5′ […] 3′ (nt 277 to 295; reverse, SEQ ID NO.: 2), and the sequence of the fluorogenic probe, labeled with 6-FAM and TAMRA (Biosearch Technologies, Inc.), was 5′ […] 3′ (nt 168 to 188, SEQ ID NO.: 3). The primer and probe sequences for qRT-PCR analysis of Con1 RNA's were described previously (17). Standard curves were generated using in vitro-transcribed HCV RNA's. Intracellular HCV RNA levels were normalized by 18 S rRNA or GAPDH mRNA.
# [4] = system: SgJFH1-Luc subgenomic HCV replicon (genotype 2a); format: cell-based, hepatitis C virus
# Excerpt: as §1
# After various treatments, SgJFH1 Luc RNA-transfected cells were lysed with 1× Reporter Lysis Buffer, and the luciferase activity was determined using Luciferase Reporter Assay Kit (Promega Corp.) (24). Luciferase activities were normalized by total protein content, determined with bicinchoninic acid (BCA) assay kit from Pierce.
# To test whether the JFH1 RNA replication was also affected by ethanol, Huh7 cells were transfected with JFH1 SgJFH1-Luc RNA and exposed the cells to ethanol for 48 hours. Then, HCV replication was monitored by measuring the firefly luciferase activity (24).
# [5] = system: Con1 HCV subgenomic replicon; experiment: Con1 subgenomic replicon HCV RNA in Clone B cells; format: cell-based, hepatitis C virus; settings: 24 hrs, response compared with SgPC2 cells
# Excerpt: as §1, §3
# [6] = BSO with 2 mM GSH or GSH ester, 24 hrs
# [7] = 0.2% ethanol ± 0.1 mM 4 MP plus 25 μM DADS
# [8] = acetaldehyde at physiologically relevant concentrations, 24 hrs
compound,measurement,setting,value
CC(C)=O [acetone],HCV RNA level / HCV replication in SgPC2 cells,[1],increased
same,NADH/NAD+ ratio,NADH/NAD+ ratio; 3 h,increases
same,total intracellular cholesterol content,[2],increased
CC(=O)O [acetate],HCV RNA level / HCV replication in SgPC2 cells,[1],increased
same,NADH/NAD+ ratio,NADH/NAD+ ratio; 3 h,increases
same,total intracellular cholesterol content,[2],increased
C/C=C/C/C=C/CCC(=O)[C@H]1O[C@H]1C(N)=O [cerulenin],"potentiation of HCV RNA replication by ethanol, acetaldehyde, isopropyl alcohol, acetone, and acetate",[1]; SgPC2 cells,almost completely inhibited
same,basal level of HCV replication,HCV,suppress
CC(O)C(=O)O (centres unmarked) [lactate],HCV RNA level / HCV replication in SgPC2 cells,[1],little to no effect
same,NADH levels,"NADH/NAD+ ratio; 5 mM lactate, 3 h",235.9±11.9 % of the control level
same,total intracellular cholesterol content,[2],no significant effect
"OO [H2O2, Hydrogen peroxide]",JFH1 RNA levels,"JFH1 HCV (genotype 2a); 25, 50, and 100 μM bolus H2O2, 24 hrs",decreased
same,cytotoxicity in JFH1 cells,[3]; 100 μM H2O2,some cytotoxicity
same,cytotoxicity in JFH1 cells,[3]; 25 and 50 μM H2O2,clearly within the subtoxic range
"N[C@@H](CCC(=O)N[C@@H](CS)C(=O)NCC(=O)O)C(=O)O [GSH, glutathione]",restoration of intracellular HCV RNA in BSO-treated cells,JFH1 HCV (genotype 2a); [6],could not restore
"CCCCCCCCCCCCCCOc1ccc(C(=O)O)o1 [TOFA, 5-(Tetradecyloxy)-2-furoic acid]","potentiation of HCV RNA replication by ethanol, acetaldehyde, isopropyl alcohol, acetone, and acetate",[1]; SgPC2 cells,almost completely inhibited
same,basal level of HCV replication,HCV,suppress
CCOC(=O)CNC(=O)[C@H](CS)NC(=O)CC[C@H](N)C(=O)O [GSH ethyl ester],restoration of extracellular HCV RNA in BSO-treated cells,JFH1 HCV (genotype 2a); [6],partially restored
same,restoration of intracellular HCV RNA in BSO-treated cells,JFH1 HCV (genotype 2a); [6],partially restored
N#CN [cyanamide],potentiation of HCV replication by ethanol,[1]; 0.2% ethanol ± 0.1 mM cyanamide,suppressed
same,NADH/NAD+ ratio in ethanol-treated cells,NADH/NAD+ ratio,decreases
"CC[C@H](C)C(=O)O[C@H]1C[C@@H](C)C=C2C=C[C@H](C)[C@H](CC[C@@H]3C[C@@H](O)CC(=O)O3)[C@H]21 [lovastatin, Lovastatin]","potentiation of HCV RNA replication by ethanol, acetaldehyde, isopropyl alcohol, acetone, and acetate",[1]; SgPC2 cells,almost completely inhibited
same,"increase of intracellular cholesterol content by ethanol, acetaldehyde, acetone, and acetate",[2]; ± lovastatin,attenuated
same,basal level of HCV replication,HCV,suppress
C=CCSSCC=C [DADS],potentiation of HCV replication by ethanol,[1]; [7],suppressed
same,NADH/NAD+ ratio in ethanol-treated cells,NADH/NAD+ ratio,decreases
"Cc1cn[nH]c1 [4 MP, 4-methylpyrazole]",potentiation of HCV replication by ethanol,[1]; [7],suppressed
same,NADH/NAD+ ratio in ethanol-treated cells,NADH/NAD+ ratio,decreases
O=C(O)CCS [β-mercaptopropionic acid],increase in HCV replication,"[1]; 2 mM β-mercaptopropionic acid, SgPC2 cells",15.2±1.7 fold
CC(C)O [isopropyl alcohol],HCV RNA level / HCV replication in SgPC2 cells,[1],increased
same,NADH/NAD+ ratio,NADH/NAD+ ratio; 3 h,increases
CC(C)(C)O [tert-butanol],HCV RNA level / HCV replication in SgPC2 cells,[1],did not elevate
same,NADH/NAD+ ratio,NADH/NAD+ ratio; 3 h,did not elevate
CC=O [acetaldehyde],HCV RNA content in virus-producing JFH1 cells,JFH1 HCV (genotype 2a); [8],significantly increased
same,HCV replication in RIG-1-defective Huh7.5 cells,"JFH1 virus; FIG. 5, also data not shown",increase
same,HCV replication in naive cells infected with virus-containing medium,"JFH1 virus; Huh7.5 cells, acetaldehyde 24 hrs",significant increases
same,HCV RNA content in non-virus producing JFH1 cells,[4]; [8],significantly increased
same,HCV RNA level / HCV replication in SgPC2 cells,[1],elevated
same,HCV RNA in Clone B cells,[5],responded similarly
same,NADH/NAD+ ratio,NADH/NAD+ ratio; 3 h,increases
same,total intracellular cholesterol content,[2],increased
glucose oxidase [GO],decrease of intracellular JFH1 RNA,"JFH1 HCV (genotype 2a); 0.25 mU/mL GO + glucose, 24 hrs",30±8%
same,effect on the suppression of HCV RNA by BSO,"JFH1 HCV (genotype 2a); GO + glucose after 16 hr pre-treatment with 20 μM BSO, 24 hrs",exacerbated the suppression
same,effect on the suppression of subgenomic JFH1 RNA replication by BSO,[4],exacerbated the suppression
